Data as given in patent US7544814B2, “[3.2.0] Heterocyclic compounds and methods of using the same” (Nereus Pharmaceuticals, Inc., priority 2004, dated 2009).
Read-outs that look alike come from different tables or passages of the source.

Assays:
NF-κB = assay: NF-κB-mediated luciferase reporter gene assay, HEK293 NF-κB/Luc cells, TNF-α stimulation; assay type: cell-based, human; conditions: Homo sapiens, HEK293, Table 12; read-out: NF-κB EC50
Outline: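 Cells seeded at 1.5×10^4/well in phenol-red free DMEM, pretreated 1 h with 8-point half-log compound dilutions (DMSO stocks), then stimulated with TNF-α (10 μl of 50 ng/ml solution) for 6 h. Luciferase read as RLU after 10 min with Steady Lite reagent at room temperature.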

[1] = target: T1, chymotrypsin-like activity of 20S proteasomes in RPMI 8226 cells (Homo sapiens, UniProt P28074); assay: Chymotrypsin-like activity of 20S proteasomes in lysates of treated RPMI 8226 cells; assay type: cell-based
T1 construct: added to 2.5×10^5/ml RMPI 8226 cells; endogenous in cells; host or cells: RPMI 8226 (ATCC CCL-155)
T1 sequence (P28074 60-263): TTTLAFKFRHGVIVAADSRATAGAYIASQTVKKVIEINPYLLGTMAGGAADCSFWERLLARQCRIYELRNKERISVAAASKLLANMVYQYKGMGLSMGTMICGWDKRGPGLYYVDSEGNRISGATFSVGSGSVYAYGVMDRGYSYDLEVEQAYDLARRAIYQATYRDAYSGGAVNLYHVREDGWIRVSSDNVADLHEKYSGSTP
Experimental: RPMI 8226 (ATCC, CCL-155), the human multiple myeloma cell line, was cultured in RPMI 1640 medium supplemented with 2 mM L-glutamine, 100 units/ml penicillin, 100 μg/ml streptomycin, 1 mM sodium pyruvate and 10% heat inactivated fetal bovine serum at 37° C., 5% CO2 and 95% humidified air. […] DMSO was used as the vehicle control at a final concentration of 0.1%. Following 1 hr incubation of RMPI 8226 cells with the compounds, the cells were pelleted by centrifugation at 2,000 rpm for 10 sec at room temperature and washed 3× with ice-cold 1× Dulbecco's Phosphate-Buffered Saline (DPBS, Mediatech, Herndon, Va.). DPBS washed cells were lysed on ice for 15 min in lysis buffer (20 mM HEPES, 0.5 mM EDTA, 0.05% Triton X-100, pH 7.3) supplemented with protease inhibitor cocktail (Roche Diagnostics, Indianapolis, Ind.). Cell debris was pelleted by centrifugation at 14,000 rpm for 10 min, 4° C. and supernatants (=cell lysates) were transferred to a new tube. Protein concentration was determined by the BCA protein assay kit (Pierce Biotechnology, Rockford, Ill.). […] The released coumarin (AMC) was measured fluorometrically by using λex=390 nm and λem=460 nm. The assay was performed in a microtiter plate (Corning 3904) and followed kinetically with measurements every five minutes for 2 hr. The total amount of protein used for each assay was 20 μg. The final concentration of Suc-LLVY-AMC and DMSO was 20 μM and 0.2%, respectively.

HT-29 = assay: Growth inhibition of HT-29 in media containing 1% or 10% FBS; assay type: cell-based, human; conditions: for EC50: Homo sapiens, HT-29, read-out: HT-29, EC50 (nM) mean ± SD
[2] = target: T2, chymotrypsin-like activity of 20S proteasomes in PC-3 cells (Homo sapiens, UniProt P28074); assay: Chymotrypsin-like activity of 20S proteasomes in lysates of treated PC-3 cells; assay type: cell-based; conditions: for % inhibition of the chymotrypsin-like activity of 20S proteasomes in PC-3 cell lysates: 1 hr incubation
T2 construct: endogenous in cells; host or cells: PC-3 (ATCC CRL-1435)
Experimental: PC-3 (ATCC, CRL-1435), the human prostate cancer cell line, was cultured in F12K medium supplemented with 2 mM L-glutamine, 100 units/ml penicillin, 100 μg/ml streptomycin and 10% heat inactivated fetal bovine serum at 37° C., 5% CO2 and 95% humidified air. […] DMSO was used as the vehicle control at a final concentration of 0.1%. Following 1 hr incubation of PC-3 cells with the compounds, the cells were washed 3× with ice-cold 1× Dulbecco's Phosphate-Buffered Saline (DPBS, Mediatech, Herndon, Va.). […] Cell debris was pelleted by centrifugation at 14,000 rpm for 10 min, 4° C. and supernatants (=cell lysates) were transferred to a new tube. Protein concentration was determined by the BCA protein assay kit (Pierce Biotechnology, Rockford, Ill.). […] The released coumarin (AMC) was measured fluorometrically by using λex=390 nm and λem=460 nm. The assay was performed in a microtiter plate (Corning 3904) and followed kinetically with measurements every five minutes for 2 hr. The total amount of protein used for each assay was 20 μg. The final concentration of Suc-LLVY-AMC and DMSO was 20 μM and 0.2%, respectively. Results are presented as the percent inhibition of the 20S proteasome chymotrypsin-like activity relative to the DMSO control.

RPMI 8226 = assay: cells; conditions: for EC50: Homo sapiens
Experimental: RPMI 8226 (CCL-155), HT-29 (HTB-38), and B16-F10 (CRL-6475) cells were purchased from ATCC. RPMI 8226 cells were maintained in RPMI 1640 media supplemented with 10% (v/v) FBS, 2 mM L-glutamine, 1 mM sodium pyruvate and Penicillin/Streptomycin at 100 IU/ml and 100 μg/ml, respectively. HT-29 cells were maintained in McCoys 5A supplemented with 10% (v/v) FBS, 2 mM L-glutamine, 1 mM sodium pyruvate, 1% (v/v) non-essential amino acids, 10 mM HEPES and Penicillin/Streptomycin at 100 IU/ml and 100 μg/ml, respectively. B16-F10 cells were maintained in DMEM supplemented with 10% (v/v) FBS, 2 mM L-glutamine, 10 mM HEPES and Penicillin/Streptomycin at 100 IU/ml and 100 μg/ml, respectively.
RPMI 8226 cells were seeded at 2×10^4 cells/well in 90 μl RPMI media containing 10% (v/v) FBS or 1% (v/v) FBS into 96 well black-walled, clear-bottom tissue culture plates. […] Formulae II-16, II-17 and Formula II-18 were serially diluted in media containing 1% or 10% FBS and added in triplicate to the test wells. […] The final concentration of Formula II-18 ranged from 2 μM to 630 pM.

B16-F10 = assay: Growth inhibition of B16-F10 in media containing 1% or 10% FBS; assay type: cell-based, mouse
[3] = RPMI-8226, read-out: % inhibition of the chymotrypsin-like activity of 20S proteasomes in RPMI 8226 cell lysates
[4] = PC-3, read-out: % inhibition of the chymotrypsin-like activity of 20S proteasomes in PC-3 cell lysates

In the case of `C[C@@]12OC(=O)[C@]1([C@@H](O)[C@@H]1C=CCCC1)NC(=O)[C@@H]2CCCl` [Formula II-16], the EC50 (NF-κB) is reported as 11 ± 3 nM, the “% inhibition of the chymotrypsin-like activity of 20S proteasomes in RPMI 8226 cell lysates” value ([1]; 100 nM, 1 hr incubation, mean ± SD, n = 3, 0.1 µM) is reported as “completely inhibit” and the inhibition at 0.001 µM [1, 3] is reported as 30 ± 7%. The inhibition at 0.005 µM [1, 3] was 85 ± 7%, the inhibition at 0.01 µM [1, 3] was 94 ± 3% and the inhibition at 0.05 µM [1, 3] was 97%. The inhibition at 0.1 µM [1, 3] was 98 ± 1%, the “cytotoxicity against HT-29 in media containing 1% or 10% FBS, in words” value (HT-29; 1% or 10% FBS) was “cytotoxic” and the EC50 (HT-29; media containing 1% FBS) was 16 ± 5 nM. For the same compound, the EC50 (HT-29; media containing 10% FBS) was 23 ± 10 nM, the “% inhibition of the chymotrypsin-like activity of 20S proteasomes in PC-3 cell lysates” value ([2]; 5 nM) was 69% and the “% inhibition of the chymotrypsin-like activity of 20S proteasomes in PC-3 cell lysates” value ([2]; 50 nM, 0.05 µM) was “completely inhibit”. For the same compound, the inhibition at 0.005 µM [2, 4] was 69%, the inhibition at 0.05 µM [2, 4] was 98% and the “cytotoxicity against RPMI 8226 in media containing 1% or 10% FBS, in words” value (RPMI 8226; 1% or 10% FBS) was “cytotoxic”. The EC50 (RPMI 8226; RPMI-8226, read-out: 1% FBS, EC50, RPMI 8226, media containing 1% FBS, single experiments) was 6.2 nM, the EC50 (RPMI 8226; RPMI-8226, read-out: 10% FBS, EC50, RPMI 8226, media containing 10% FBS, single experiments) was 12 nM and the EC50 (RPMI 8226; RPMI-8226, read-out: Mean 10% FBS, EC50, RPMI 8226, media containing 10% FBS, mean) was 11 nM. The “cytotoxicity against B16-F10 in media containing 1% or 10% FBS, in words” value (B16-F10; 1% or 10% FBS) was “cytotoxic” and the EC50 (B16-F10; Mus musculus, B16-F10, read-out: B16-F10, EC50 (nM) mean ± SD, media containing 1% FBS) was 18 ± 9 nM.
